{"source": "patent US5945451A", "about": "“Fluorobutenyl(thio)ethers used as pesticides” (Bayer Aktiengesellschaft, priority 1994, dated 1999)", "key": {"[1]": {"tested_on": "Meloidogyne incognita", "assay": "Critical concentration test/nematodes", "type": "in vivo", "settings": "20 ppm in soil; lettuce root galls after three weeks", "protocol": "Critical concentration test/nematodes\nTest nematode: Meloidogyne incognita\nSolvent: 3 parts by weight of acetone\n(§1) Emulsifier: 1 part by weight of alkylaryl polyglycol ether\nTo produce a suitable preparation of active compound, 1 part by weight of active compound is mixed with the stated amount of solvent, the stated amount of emulsifier is added and the concentrate is diluted with water to the desired concentration.\nThe preparation of active compound is intimately mixed with soil which is severely infested with the test nematodes. The concentration of the active compound in the preparation is of practically no importance, only the amount of active compound per unit volume of soil, which is given in ppm (=mg/l), being decisive. The treated soil is transferred into pots, lettuce is sown in, and the pots are kept at a greenhouse temperature of 25° C.\nAfter three weeks, the lettuce roots are checked for infestation with nematodes (root galls) and the degree of efficacy of the active compound in % is determined. The degree of efficacy is 100% when infestation is avoided completely and 0% when the infestation level is just as high as in the control plants in untreated, but equally infested, soil."}, "[2]": {"tested_on": "mustard beetle larvae (Phaedon cochleariae)", "assay": "Phaedon larvae test", "type": "in vivo", "settings": "168 h, after 7 days, dipped cabbage leaves, read-out: destruction", "protocol": "(§2) Solvent: 7 parts by weight of dimethylformamide\nas §1\n(§3) To produce a suitable preparation of active compound, 1 part by weight of active compound is mixed with the stated amount of solvent and the stated amount of emulsifier, and the concentrate is diluted with water to the desired concentration.\nAfter the desired period of time, the destruction in % is determined. 100% means that all the beetle larvae have been killed; 0% means that none of the beetle larvae have been killed."}, "[3]": {"tested_on": "caterpillars of the diamond-back moth (Plutella maculipennis)", "assay": "Plutella test", "type": "in vivo", "settings": "168 h, after 7 days, dipped cabbage leaves, read-out: destruction", "protocol": "as §2, §1, §3\nCabbage leaves (Brassica oleracea) are treated by being dipped into the preparation of active compound of the desired concentration and are infested with caterpillars of the diamond-back moth (Plutella maculipennis) while the leaves are still moist.\n(§4) After the desired period of time, the destruction in % is determined. 100% means that all the caterpillars have been killed; 0% means that none of the caterpillars have been killed."}, "[4]": {"assay": "log p, octanol/water partition coefficient determined by reversed-phase HPLC", "type": "physicochemical", "settings": "for chromatographic logD: pH 2; for chromatographic logP: pH not stated", "source_text": "* log p = Logarithm of the partition coefficient p of the substance\nbetween the solvents octanol and water, determined experimentally by mean"}, "[5]": {"tested_on": "tobacco budworm (Heliothis virescens)", "assay": "whole plant or invertebrate", "type": "in vivo", "settings": "168 h, read-out: destruction", "protocol": "as §2, §1, §3\nSoya bean shoots (Glycine max) are treated by being dipped into the preparation of active compound of the desired concentration and are infested with tobacco budworm (Heliothis virescens) while the leaves are still moist.\nas §4"}, "[6]": {"tested_on": "larvae of the green rice leafhopper (Nephotettix cincticeps)", "assay": "Nephotettix test", "type": "in vivo", "settings": "144 h, read-out: destruction", "protocol": "as §2, §1, §3\nRice seedlings (Oryzae sativa) are treated by being dipped into the preparation of active compound of the desired concentration and are infested with larvae of the green rice leafhopper (Nephotettix cincticeps) while the seedlings are still moist.\nAfter the desired period of time, the destruction in % is determined. 100% means that all the leafhoppers have been killed; 0% means that none of the leafhoppers have been killed."}, "[7]": {"tested_on": "Lucilia cuprina larvae", "assay": "Blowfly larvae test", "type": "in vivo", "settings": "after 24 hours, horse meat, read-out: destruction", "protocol": "Test animals: Lucilia cuprina larvae\nSolvent: 35 parts by weight of ethylene glycol monomethyl ether\nEmulsifier: 35 parts by weight of nonylphenol polyglycol ether\nFor the purpose of producing a suitable formulation, 3 parts by weight of the active compound are mixed with 7 parts of the abovementioned mixture of solvent and emulsifier, and the emulsion concentrate thus obtained is diluted with water to the particular concentration desired.\nAbout 20 Lucilia cuprina larvae are introduced into a test tube which contains approx. 1 cm^3 of horse meat and 0.5 ml of the preparation of active compound to be tested. After 24 hours, the efficacy of the preparation of active compound is determined. 100% means that all blowfly larvae have been killed; 0% means that none of the blowfly larvae have been killed."}}}
{"smiles": "O=C(CSCCC(F)=C(F)F)NC(Cc1ccccc1)C(=O)O", "note": "(stereo not drawn) [Example I-17]", "values": [{"measurement": "degree of efficacy", "setting": "[1]", "result": 100, "unit": "%"}]}
{"smiles": "CC(NC(=O)CSCCC(F)=C(F)F)C(=O)O", "note": "(stereo not drawn) [Example I-16]", "values": [{"measurement": "degree of efficacy", "setting": "[1]", "result": 100, "unit": "%"}]}
{"smiles": "O=C(CSCCC(F)=C(F)F)Nc1ccccn1", "note": "[Example I-11]", "values": [{"measurement": "degree of efficacy", "setting": "[1]", "result": 100, "unit": "%"}]}
{"smiles": "CC(C)N(C(=O)CSCCC(F)=C(F)F)c1ccc(Cl)c(Cl)c1", "note": "[Example I-13]", "values": [{"measurement": "mortality at 0.1 %", "setting": "[2]", "result": 100, "unit": "%"}, {"measurement": "mortality at 0.1 %", "setting": "[3]", "result": 100, "unit": "%"}]}
{"smiles": "O=C(CSCCC(F)=C(F)F)NCc1ccccc1", "note": "[Example I-23]", "values": [{"measurement": "chromatographic logD", "setting": "[4]", "result": 2.56}]}
{"smiles": "O=C(CSCCC(F)=C(F)F)Nc1ccc(F)cc1", "note": "[Example I-10]", "values": [{"measurement": "mortality at 0.1 %", "setting": "[5]", "result": 85, "unit": "%"}]}
{"smiles": "CC(C)N(C(=O)CSCCC(F)=C(F)F)c1cccc(F)c1", "note": "[Example I-14]", "values": [{"measurement": "mortality at 0.1 %", "setting": "[3]", "result": 100, "unit": "%"}, {"measurement": "mortality at 0.1 %", "setting": "[6]", "result": 100, "unit": "%"}]}
{"smiles": "O=C(O)CNC(=O)CSCCC(F)=C(F)F", "note": "[Example I-15]", "values": [{"measurement": "degree of efficacy", "setting": "[1]", "result": 100, "unit": "%"}]}
{"smiles": "O=C(Nc1ccc(Cl)c(Cl)c1)C(SCCC(F)=C(F)F)c1ccccc1", "note": "(stereo not drawn) [Example I-46]", "values": [{"measurement": "chromatographic logD", "setting": "[4]", "result": 4.59}]}
{"smiles": "CC(NC(=O)CSCCC(F)=C(F)F)c1ccccc1", "note": "(stereo not drawn) [Example I-18]", "values": [{"measurement": "chromatographic logP", "setting": "[4]", "result": 2.77}]}
{"smiles": "CC(C)COC(=O)CSCCC(F)=C(F)F", "note": "[Example I-21]", "values": [{"measurement": "chromatographic logP", "setting": "[4]", "result": 3.74}]}
{"smiles": "O=C(CSCCC(F)=C(F)F)OCc1ccccc1", "note": "[Example I-2]", "values": [{"measurement": "degree of efficacy", "setting": "[1]", "result": 100, "unit": "%"}]}
{"smiles": "COC(=O)CSCCC(F)=C(F)F", "note": "[Example I-20]", "values": [{"measurement": "chromatographic logP", "setting": "[4]", "result": 2.43}]}
{"smiles": "CN(C)C(=O)CSCCC(F)=C(F)F", "note": "[Example I-9]", "values": [{"measurement": "mortality at 1000 ppm", "setting": "[7]", "result": 100, "unit": "%"}]}
{"smiles": "O=C(CSCCC(F)=C(F)F)NCc1ccc(Cl)cc1", "note": "[Example I-19]", "values": [{"measurement": "chromatographic logP", "setting": "[4]", "result": 2.94}]}
{"smiles": "NC(=O)CSCCC(F)=C(F)F", "note": "[Example I-22]", "values": [{"measurement": "chromatographic logD", "setting": "[4]", "result": 1.22}]}
